Values after ≈ are worked out from the molar mass of the structure shown. Peptide text beside a SMILES is read from it.
Legend:
[1] = Hemolytic activity in human RBC assessed as hemolysis; type: toxicity, cell-based, Erythrocyte; conditions: red blood cells
Escherichia coli [2] = test: Antibacterial activity against Escherichia coli ATCC 25922 assessed as bacterial growth inhibition measured after 48 hrs by resazurin assay; type: functional
Staphylococcus aureus [3] = test: Antibacterial activity against Staphylococcus aureus ATCC 25923 assessed as reduction in bacterial growth incubated for 24 hrs by serial dilution method; type: functional
Escherichia coli [4] = test: Antibacterial activity against Escherichia coli; type: functional
Staphylococcus aureus [5] = test: Antibacterial activity against Staphylococcus aureus; type: functional
Escherichia coli [6] = test: Antibacterial acitivity against Escherichia coli DH5a assessed as bacterial growth inhibition incubated for 24 hrs by broth micro-dilution method; type: functional
[7] = test system: Mycolicibacterium smegmatis; test: Antimycobacterial activity against Mycobacterium smegmatis mc2 155 assessed as reduction in bacterial cell growth incubated for 24 hrs by resazurin dye based broth microdilution method; type: functional
[8] = Hemolytic activity against human Red blood cells assessed as cell lysis; type: toxicity, cell-based, Erythrocyte
Zymomonas mobilis = test: Antibacterial activity against Zymomonas mobilis ATCC 10988 assessed as reduction in bacterial growth incubated for 24 hrs by broth micro-dilution method; type: functional
Bacillus subtilis = test: Antimicrobial activity against Bacillus subtilis assessed as microbial growth inhibition incubated for 24 hrs by broth micro-dilution method; type: functional

Row | Structure (SMILES) | HC50 [1] [µM] | MIC (Escherichia coli [2]) [µM] | MIC (Staphylococcus aureus [3]) [µM] | other results
1 | CC[C@H](C)[C@H](NC(=O)[C@H](CCCNC(=N)N)NC(=O)[C@H](CCCCN)NC(=O)[C@H](CC(C)C)NC(=O)[C@H](CC(C)C)NC(=O)CN)C(=O)N[C@@H](CCCCN)C(=O)N[C@@H](Cc1ccccc1)C(=O)N[C@@H](CC(C)C)C(=O)N[C@@H](CC(C)C)C(N)=O (H-GLLKRIKFLL-NH2) | 326 | 6.7 (≈ 8.04 µg/mL) | 6.7 (≈ 8.04 µg/mL) | –
2 | CC[C@H](C)[C@H](NC(=O)[C@H](CCCCN)NC(=O)[C@@H](NC(=O)[C@H](CCCNC(=N)N)NC(=O)[C@H](CCCCN)NC(=O)[C@H](CC(C)C)NC(=O)[C@H](CC(C)C)NC(=O)CN)[C@@H](C)CC)C(=O)N[C@@H](CC(C)C)C(=O)N[C@@H](CC(C)C)C(N)=O (H-GLLKRIKILL-NH2) | 81.8 | 7.7 (≈ 8.97 µg/mL) | 12 (≈ 14 µg/mL) | –
3 | CC[C@H](C)[C@H](NC(=O)[C@H](CCCNC(=N)N)NC(=O)[C@H](CCCCN)NC(=O)[C@H](CC(C)C)NC(=O)[C@H](CC(C)C)NC(=O)CN)C(=O)N[C@@H](CCCCN)C(=O)N[C@@H](CC(C)C)C(=O)N[C@@H](CC(C)C)C(=O)N[C@@H](CC(C)C)C(N)=O (H-GLLKRIKLLL-NH2) | 102 | 11.2 (≈ 13.1 µg/mL) | 6 (≈ 6.99 µg/mL) | –
4 | CC[C@H](C)[C@H](NC(=O)[C@H](CCCNC(=N)N)NC(=O)[C@H](CCCCN)NC(=O)[C@H](CC(C)C)NC(=O)[C@H](CC(C)C)NC(=O)CN)C(=O)N[C@@H](CCCCN)C(=O)N[C@@H](CC(N)=O)C(=O)N[C@@H](CC(C)C)C(=O)N[C@@H](CC(C)C)C(N)=O (H-GLLKRIKNLL-NH2) | 79.2 | 18.9 (≈ 22 µg/mL) | 10.3 (≈ 12 µg/mL) | –
5 | CC[C@H](C)[C@H](NC(=O)[C@H](CCCNC(=N)N)NC(=O)[C@H](CCCCN)NC(=O)[C@H](CC(C)C)NC(=O)[C@H](CC(C)C)NC(=O)CN)C(=O)N[C@@H](CCCCN)C(=O)N[C@H](C(=O)N[C@@H](CC(C)C)C(=O)N[C@@H](CC(C)C)C(N)=O)C(C)C (H-GLLKRIKVLL-NH2) | 69.5 | 19.1 (≈ 22 µg/mL) | 19.1 (≈ 22 µg/mL) | –
6 | CC[C@H](C)[C@H](NC(=O)[C@H](CCCNC(=N)N)NC(=O)[C@H](CCCCN)NC(=O)[C@H](CC(C)C)NC(=O)[C@H](CC(C)C)NC(=O)CN)C(=O)N[C@@H](CCCCN)C(=O)N[C@@H](Cc1c[nH]c2ccccc12)C(=O)N[C@@H](CC(C)C)C(=O)N[C@@H](CC(C)C)C(N)=O (H-GLLKRIKWLL-NH2) | 500 | 6.5 (≈ 8.05 µg/mL) | 3.2 (≈ 3.96 µg/mL) | –
7 | CC[C@H](C)[C@H](NC(=O)[C@@H](NC(=O)[C@H](CCCCN)NC(=O)[C@H](CC(C)C)NC(=O)[C@H](CC(C)C)NC(=O)CN)C(C)C)C(=O)N[C@@H](CCCCN)C(=O)N[C@H](C(=O)N[C@@H](CC(C)C)C(=O)N[C@@H](CC(C)C)C(N)=O)C(C)C (H-GLLKVIKVLL-NH2) | 190 | – | – | MIC (Escherichia coli [4]): 25.6 µM (≈ 28 µg/mL); MIC (Staphylococcus aureus [5]): 12.8 µM (≈ 14 µg/mL)
8 | CC[C@H](C)[C@H](NC(=O)[C@H](Cc1ccccc1)NC(=O)[C@H](CCCCN)NC(=O)[C@H](CC(C)C)NC(=O)[C@H](CC(C)C)NC(=O)[C@@H](N)CCCCN)C(=O)N[C@@H](CCCCN)C(=O)N[C@@H](CCCCN)C(=O)N[C@@H](CC(C)C)C(=O)N[C@@H](CC(C)C)C(N)=O (H-KLLKFIKKLL-NH2) | – | – | – | MIC (Escherichia coli [6]): 322 µM (≈ 400 µg/mL); MIC [7]: 13.3 µM (≈ 16.5 µg/mL); HC50 [8]: > 403 µM; MIC (Zymomonas mobilis): 8.9 µM (≈ 11.1 µg/mL); MIC (Bacillus subtilis): 35.6 µM (≈ 44.2 µg/mL)
9 | CC[C@H](C)[C@H](NC(=O)[C@H](Cc1ccccc1)NC(=O)[C@H](CCCCN)NC(=O)[C@H](CC(C)C)NC(=O)[C@H](CC(C)C)NC(=O)[C@@H](N)CCCCN)C(=O)N[C@@H](CCCCN)C(=O)N[C@H](C(=O)N[C@@H](CC(C)C)C(=O)N[C@@H](CC(C)C)C(N)=O)[C@@H](C)O (H-KLLKFIKTLL-NH2) | 295 | – | – | MIC (Escherichia coli [4]): 2.5 µM (≈ 3.04 µg/mL); MIC (Staphylococcus aureus [5]): 5.8 µM (≈ 7.05 µg/mL)
